These results are taken from the OPERA property sets (Mansouri et al. 2018).

SMILES strings stand for the structures.

For orientation: logP means a log measure of how a compound divides between an organic and an aqueous phase. A low value points to lower lipophilicity. Take `Cc1ccccc1S(=O)(=O)N1C(=O)NC(=O)C1(c1ccccc1)c1ccccc1`: the logP is 4.

With `OC1(Cn2cncn2)CCCC1Cc1ccc(Cl)cc1` (stereo unspecified), the log partition coefficient (logP) was determined as 3.11.

In the case of `CNC(=O)NCCCC(NC(C)=O)C(=O)NCc1ccccc1` (stereo unspecified), the lipophilicity (logP) is -0.33.

Compound `COc1ccc2cc(CC(=O)OCC(=O)NC(C)C)ccc2c1` gave a logP of 2.89.

As for `CC12CCC(CC1=O)C2(C)C` (stereo unspecified), the logP was determined as 2.38.

With `CC(=O)c1ccc(OC(=O)N(C)C)cc1`, the logP came to 1.27.

With `CCOc1ccc(NC(=O)OCCF)cc1OCC`, the logP turned out to be 2.27.

Regarding `CC(=O)NC(CCCCN(Cc1ccccc1)C(=O)N(C)N=O)C(=O)NCc1ccccc1` (stereo unspecified), the log partition coefficient (logP) is 2.12.

Compound `C#CC(CC)OC(=O)Nc1ccc(OCC)c(OCC)c1` (stereo unspecified) displayed a logP of 3.07.

In turn, `CCOc1ccc(NC(=O)OC(C)COC)cc1OCC` (stereo unspecified) gave a logP of 2.56.

Compound `COc1cccc(OC)c1C(=O)Nc1nnc(-c2ccccc2)s1` returned a logP of 3.5.

In turn, `CCOc1ccc(NC(=O)OCCCl)cc1OCC` yielded a logP of 2.62.

On to `COCCNC(=O)Cn1ccnc1[N+](=O)[O-]`, for which the logP is -0.77.

On to `CCOC(=O)C(C)c1ccc(-n2sc3ccccc3c2=O)cc1` (stereo unspecified), for which the logP was 3.91.

For the compound `CCSc1nnc(C(C)(C)C)c(=O)n1N`, the log partition coefficient (logP) stood at 2.08.

In turn, `CCCNC(=O)COC(=O)Cc1ccc2cc(OC)ccc2c1` had a logP of 3.1.

As to `CCC1CCC(Cc2ccc(Cl)cc2)C1(O)Cn1cncn1` (stereo unspecified), the logP was found to be 3.71.

`OC1(Cn2cncn2)CCCC1Cc1ccccc1` (stereo unspecified) yielded a lipophilicity (logP) of 2.26.

In turn, `C=CCNC(=O)N(CCC)CCCCC(NC(C)=O)C(=O)NCc1ccccc1` (stereo unspecified) had a lipophilicity (logP) of 1.75.

Regarding `CN(C)C(=O)Oc1cccc(C#N)c1`, the lipophilicity (logP) amounted to 1.23.

As to `CNC(=O)N(CCCCC(NC(C)=O)C(=O)NCc1ccccc1)Cc1ccccc1` (stereo unspecified), the log partition coefficient (logP) was found to be 1.99.

For the compound `CCC(C)NC(=O)COC(=O)Cc1ccc2cc(OC)ccc2c1` (stereo unspecified), the logP stood at 3.31.

`COC(=O)C(C)c1ccc(-n2sc3ccccc3c2=O)cc1` (stereo unspecified) displayed a logP of 3.46.

Compound `Clc1ccc(-c2ccc(Cl)c(Cl)c2)cc1` showed a logP of 5.9.

Compound `COc1n[n+]([O-])c2ccccc2[n+]1[O-]` gave a logP of -0.3.

`CCCCCCCCCCn1c(N)c(N)c(=O)[nH]c1=O` showed a lipophilicity (logP) of 3.04.

As to `COc1ccc2cc(CC(=O)OCC(=O)NC(C)(C)C)ccc2c1`, the logP stood at 3.6.

In the case of `CCNC(=O)COC(=O)Cc1ccc2cc(OC)ccc2c1`, the logP worked out at 2.65.

`C#CCOc1cc(NC=NOCC)cc(Cl)c1OCC#C` showed a logP of 2.6.

Consider `OC1(Cn2cncn2)CCCC1Cc1ccc(-c2ccccc2)cc1` (stereo unspecified), for which the logP was 3.92.

With `COc1ccc2cc(CC(=O)OCC(=O)N3CCCC3)ccc2c1`, the logP turned out to be 2.71.

`COc1ccc2c(c1OC)-c1ccc(OC)c(=O)cc1C(NC(C)=O)CC2` (stereo unspecified) yielded a lipophilicity (logP) of 1.02.

Compound `C=CC(CC)OC(=O)Nc1ccc(OCC)c(OCC)c1` (stereo unspecified) came in with a log partition coefficient (logP) of 3.42.

As to `COc1ccc2cc(CC(=O)OCC(=O)N(C)CCO)ccc2c1`, the logP was 1.58.

Compound `CNC(=O)ON=C(CSC)C(C)(C)C` yielded a lipophilicity (logP) of 2.75.

For the compound `CN(C)C(=O)Oc1cccc(F)c1`, the logP amounted to 1.75.

For `CN(C)C(=O)Oc1cccc([N+](=O)[O-])c1`, the logP is 1.56.

The compound `CCCN(CCCC(NC(C)=O)C(=O)NCc1ccccc1)C(=O)N(C)N=O` (stereo unspecified) yielded a log partition coefficient (logP) of 1.61.

`CCOc1ccc(NC(=O)OCCBr)cc1OCC` came in with a lipophilicity (logP) of 2.78.

With `CC(=O)Nc1n[n+]([O-])c2cc(C)ccc2[n+]1[O-]`, the log partition coefficient (logP) was -0.4.

For the compound `O=C1NC(=O)C(c2ccccc2)(c2ccccc2)N1S(=O)(=O)c1ccccc1`, the log partition coefficient (logP) was determined as 4.04.

Turning to `CCOc1cc[n+]([O-])cc1`, the log partition coefficient (logP) was -0.53.

In turn, `CCc1ccc(CO)cc1` showed a log partition coefficient (logP) of 2.27.

In the case of `C=CCN1CCN(CC=C)C1=S`, the logP turned out to be 1.63.

For the compound `COc1ccc2cc(CC(=O)OCC(=O)N(C(C)C)C(C)C)ccc2c1`, the logP was 3.89.

As for `CCc1cccc(OC(=O)N(C)C)c1`, the lipophilicity (logP) worked out at 2.47.

`C#CCOc1cc(NC=NOC)cc(F)c1OCC#C` returned a lipophilicity (logP) of 1.8.

Turning to `COc1ccc2c(c1)[n+]([O-])nc(N)[n+]2[O-]`, the logP is 0.

With `C=CCN(N=O)C(=O)NCCCCC(NC(C)=O)C(=O)NCc1ccccc1` (stereo unspecified), the logP was determined as 1.62.

`C#CCOc1ccc(NC=NOC)cc1OCC#C` gave a lipophilicity (logP) of 1.6. The logP values of the last two compounds are within 0.2 log units of each other.

For the compound `Cc1cccc(O)c1C`, the logP amounted to 2.48.

In turn, `Cc1cc2c(cc1C)[n+]([O-])c(N)n[n+]2[O-]` showed a logP of 0.56.

The compound `CC(C)=CCN1CC[C@@]2(C)c3cc(O)ccc3C[C@@H]1[C@@H]2C` showed a lipophilicity (logP) of 4.64.

In the case of `COc1ccc2cc(CC(=O)O)ccc2c1`, the lipophilicity (logP) came to 2.82.

`CCC(C(N)=O)c1ccc(-n2sc3ccccc3c2=O)cc1` (stereo unspecified) showed a log partition coefficient (logP) of 2.58.

In the case of `CCOc1ccc(-c2nnc(NC(=O)c3c(OC)cccc3OC)s2)cc1`, the lipophilicity (logP) is 3.75.

Compound `Cc1ccc(CC2CCCC2(O)Cn2cncn2)cc1` (stereo unspecified) came in with a lipophilicity (logP) of 2.71.

On to `C#CCOc1cc(NC=NOCC)cc(F)c1OCC#C`, for which the logP worked out at 2.1.

The compound `CC(C)(C)C(=O)OCn1cc(F)c(=O)[nH]c1=O` registered a logP of 0.66.

Compound `COC1N(C2CC(N=[N+]=[N-])C(CO)O2)C(=O)NC(=O)C1(C)Br` (stereo unspecified) came in with a lipophilicity (logP) of 1.12.

As for `CCC(=O)Oc1ccccc1C(=O)O`, the log partition coefficient (logP) is 1.67.
